One assay deals with VCAM-1. Kind of assay: VCAM-1 Assay: TNF-stimulated cells, cell-surface ELISA. The class given is cell-based. Particulars: for IC50: bare number = IC50, NE not defined in the patent, read-out: VCAM-1 IC50 or % inhibition at [μM]: IC50. On the procedure: Two to four confluent P150 plates are trypsinized and the cells transferred to a 50 mL conical centrifuge tube. The cells are pelleted, resuspended, and counted using the trypan blue exclusion method.
Cells are resuspended at a concentration of 36,000 cells/mL and 1 mL is aliquoted per well.
Cells are split into 24 well tissue culture plates. The cells in each well should be approximately 90-95% confluent by the following day. Cells should not be older than passage 8.
Compounds are initially screened at 50 μM and 10 μM. A 50 mM stock solution for each compound is prepared in culture medium. The stock solution is diluted to 5 mM and 1 mM. When 10 μL of the 5 mM solution is added to the well (1 mL medium/well), the final concentration will be 50 μM. Adding 10 μL of the 1 mM solution to the well will give a final concentration of 10 μM.
Compounds which will not go into solution in culture medium are resuspended in DMSO at a concentration of 25 mM. The stock solution is then diluted to the final concentration in culture medium. The old medium is aspirated and 1 mL of the new medium with the compound is added. For example, if the final concentration is 50 μM, the 2 μL of the 25 mM stock is added per mL of culture medium. The […] solution is diluted for lower concentrations.
The compounds are added to the plate (each compound is done in duplicate). One plate is done for VCAM expression and one plate is done for ICAM expression.
Immediately after the compounds are added, TNF is added to each well. 100 units/mL TNF is usually added to each well. Since each lot of TNF varies in the number of units, each new lot is titrated to determine the optimum concentration. Therefore this concentration will change. If 100 units/mL is bing used, dilute the TNF to 10 units/μL and add 10 μL to each well.
The plates are incubated at 37° C., 5% CO2 overnight (approximately 16 hours). The next day the plates are checked under the microscope to see if there are any visual signs of toxicity. Records are made of any cell death, debris, or morphology changes, as well as insoluble compounds (particulate or turbity).
In order to assess MCP-1, the media (500 μL) is saved and frozen at −70° C. Wash cells once with roughly 1 ml/well of Hanks Balance Salt Solution (HBSS) or PBS. Gently empty the wash solution and then tap the plate onto paper towels. Add either 250 μL/well of HBSS +5% FCCS to the plank (no primary antibody wells) or 250 μL/well of primary antibody diluted in HBSS +5% FCS. Incubate for 30 minutes at 37° C. Wash the wells twice with 0.5 mL/well HBSS or PBS and gently tap the plates onto paper towels after the last wash. Add 250 μL/well of HRP-conjugated second antibody diluted in HBSS +5% FCS to every well including the blank wells (no primary antibody). Incubate at 37° C. for 30 minutes. Wash the wells four times with 0.5 mL/well HBSS or PBS and gently tap the plates onto paper towels after the last wash. Add 250 μL/well of substrate solution. Incubate at room temperature in the dark until there is adequate color development (blue). Note the length of time incubation was performed (typically 15-30 minutes). Add 75 μL/well stopper solution (8N sulfuric acid), and read A450 nm.
On the technique in general: An ELISA detects its analyte on a solid surface through an enzyme-linked reagent.

The test system of the next assay is ApoB/HepG2. Kind of assay: Lipid Screen & IC50 Determination Protocol: ApoB ELISA of HEPG2 media. The format is cell-based, human. Conditions: HEPG2, 24 hours; for ApoB/HepG2 % inhibition at [μM]: at 15 μM; for IC50: bare number = IC50, NE not defined in the patent, read-out: ApoB/HepG2 IC50 or % inhibition at [μM]: IC50. On the procedure: HEPG2 cell was started in 10 ml of MEM, 10% FBS, 1 mM Sodium Pyruvate. The cells were incubated in a tissue culture incubator. The cells were split into 4×96-wells plate in MEM, 10% FBS, 1 mM Sodium Pyruvate and allowed to grow to about 50% confluency and then removed.
The cells were treated with the desired concentration of compounds in 100 μl DMEM, 1% RSA for 24 hours. The compounds are dissolved in DMSO.
On the same day, 4×96-wells NuncImmunoSorb plate is coated with 100 μl of mouse anti-human ApoB monoclonal 1D1 (1:1000 dilution in 1×PBS, pH 7.4). The coating is allowed overnight.
The coated plate is washed 3 times with 1×PBS, pH 7.4, −0.05% Tween 20. 100 μl of the standards is added to the selected wells. ApoB standards are prepared at 6.25, 3.12, 1.56, 0.78, 0.39 ng, and each concentration is done in triplicates. For samples:
90 μl of 1×PBS, pH 7.4, −0.05% Tween 20 is added to each well corresponding to the sample. 10 μl of media is transferred from the treated HEPG2 plates to the ApoB ELISA plate. The plate is incubated at room temperature for 2 hours, rocking gently.
Wash the coated plate 3× with 1×PBS, pH 7.4, −0.05% Tween 20. Add 100 μl of sheep anti-human ApoB polyclonal from Boehringer Mannheim. (1:2000 dilution in 1×PBS, pH 7.4, −0.05% Tween 20) from Boehringer Mannheim. Incubate at room temperature for 1 hour, rocking gently. Wash the coated plate 3× with 1×PBS, pH 7.4, −0.05% Tween 20. Add 100 μl of rabbit anti-sheep IgG (1:2000 dilution in 1×PBS, pH 7.4, −0.05% Tween 20). Incubate at room temperature for 1 hour, rocking gently. Wash the coated plate 3× with 1×PBS, pH 7.4, −0.05% Tween 20. Add 100 μl of substrate (10 ml of distilled water, 100 μl of TMB (10 mg/ml), and 1 μl of hydrogen peroxide). Allow color to emerge and stop reaction with 25 ul of 8N sulfuric acid. Wells are read with MicroPlate Reader @ […]. Graph accumulation of ApoB in media as a percentage of control for each sample and their concentration. A determination of IC50 is obtained from the graph.
The degree of inhibition of the compounds of formulas (I) and (II) was determined by the assays described in Examples 62-64.

Take `CC(C)(Sc1cc(C(C)(C)C)c(O)c(C(C)(C)C)c1)Sc1cc(C(C)(C)C)c(OC(=O)CCC(=O)O)c(C(C)(C)C)c1` [Butanedioic acid, mono [4-[[1-[[3,5-bis(1,1-dimethylethyl)-4-hydroxyphenyl]thio]-1-methylethyl]thio]2,6-bis(1,1-dimethylethyl)phenyl]ester]: the IC50 in the assay with VCAM-1 turned out to be 5.6 µM. In the assay on ApoB/HepG2, the “ApoB/HepG2 % inhibition at [μM]” value is on record as 65% at 15.
Take `CC(C)(C)c1cc(SCc2ccc([N+](=O)[O-])cc2[N+](=O)[O-])cc(C(C)(C)C)c1O` [2,6-di-tert-butyl4-thio(2′,4′-dinitrobenzyl)phenol]: the IC50 with VCAM-1 worked out at 8 µM; with ApoB/HepG2, 32 µM.
Turning to `CN(C)Cc1ccc(CSc2cc(C(C)(C)C)c(O)c(C(C)(C)C)c2)o1` [2,6-di-tert-butyl-4-thio(5′-methyl-2′-((dimethylamino)methyl)furan)phenol], the IC50 stood at 10 µM in the assay with VCAM-1 and 19 µM with ApoB/HepG2.
Consider `CC(C)(C)c1cc(SCc2cccc([N+](=O)[O-])c2)cc(C(C)(C)C)c1O` [2,6-di-tert-butyl-4-thio(3′-nitrobenzyl)phenol], for which the IC50 with VCAM-1 was 13 µM; in the assay on ApoB/HepG2, 20 µM.
`CC(C)(Sc1cc(C(C)(C)C)c(O)c(C(C)(C)C)c1)Sc1cc(C(C)(C)C)c(OCc2ccc([N+](=O)[O-])cc2)c(C(C)(C)C)c1` [Phenol, 4-[[1-[3,5-bis(1,1-dimethylethyl)-4-[(4-nitrophenyl)methoxy]phenyl]thio]-1-methylethyl]thio]2,6-bis(1,1-dimethylethyl)-]: the “VCAM-1 % inhibition at [μM]” value in the assay on VCAM-1 (at 50 μM) amounted to 30% at 50. For the same compound, the “ApoB/HepG2 % inhibition at [μM]” value in the assay with ApoB/HepG2 amounted to 17% at 15.
Consider `CC(C)(C)c1cc(SCc2ccc(C(F)(F)F)cc2)cc(C(C)(C)C)c1O` [(2,6-di-tert-butyl4-thio(4′-(trifluoromethyl)benzyl)phenol], for which the IC50 in the assay on VCAM-1 was determined as 5 µM; with ApoB/HepG2, 16 µM.
The corresponding values for `CC(C)(C)c1cc(S(=O)(=O)Cc2ccc([N+](=O)[O-])cc2)cc(C(C)(C)C)c1O` [2,6-di-tert-butyl4-(sulfonyl-(4′-nitrobenzyl))phenol] are 40 µM and 25 µM.
For `CN(C)S(=O)(=O)c1ccc(CSc2cc(C(C)(C)C)c(O)c(C(C)(C)C)c2)cc1` [2,6-di-tert-butyl-4-thio(4′-methyl-N,N-dimethylbenzenesulfonamide)phenol], the IC50 with VCAM-1 is 20 µM; in the assay on ApoB/HepG2 it was 31 µM.
Turning to `CC(C)(Sc1cc(C(C)(C)C)c(O)c(C(C)(C)C)c1)Sc1cc(C(C)(C)C)c(OC(=O)CCCC(=O)O)c(C(C)(C)C)c1` [Pentanedioic acid, mono[4-[[1-[[3,5-bis(1,1-dimethylethyl)-4-hydroxyphenyl]thio]-1-methylethyl]thio]-2,6-bis(1,1-dimethylethyl)phenyl] ester], the IC50 in the assay on VCAM-1 was found to be 8.7 µM. For the same compound, the “ApoB/HepG2 % inhibition at [μM]” value with ApoB/HepG2 is given as 70% at 15.
In the case of `Cc1ccc(CSc2cc(C(C)(C)C)c(O)c(C(C)(C)C)c2)cc1` [2,6-di-tert-butyl-4-thio(4′-methylbenzyl)phenol], the IC50 with VCAM-1 was found to be 75 µM; with ApoB/HepG2, 22 µM.

(Values after patent US6602914B2, “Compounds and methods for the inhibition of the expression of VCAM-1” (AtheroGenics, Inc., priority 1997, dated 2003).)
